Consider one compound from patent publication US20210282443A1, “COMPOUNDS, COMPOSITIONS, AND METHODS FOR MODULATING SWEET TASTE” (Chromocell Corporation, priority 2016, published 2021).

Structures are written as SMILES.

The test has as its system perception of sweet taste of High Fructose Corn Syrup (HFCS). Briefly: 2AFC sip and spit sensory test, sweet taste of HFCS in Lemon Lime beverage. It is filed as in vivo, humans. The following applies: Lemon Lime pH 3.1. The protocol: The effect of the test compounds and combinations of test compounds on the perception of the sweet taste of a flavored beverage (referred to as Lemon Lime henceforth) of sweetener in humans was evaluated using a two-alternative forced choice “sip and spit” method (2AFC). The Lemon Lime solutions were prepared by adding sucrose equivalent (SE) quantities of high fructose corn syrup (HFCS) (by weight), to water to achieve the desired concentration. The lemon lime pH is 3.1. Compounds were first prepared as a 500-fold concentrated stock solution in 100% ethanol. These concentrated stocks were then added to the aqueous sweetener solutions to result in a final ethanol concentration of 0.2%. The control (positive and negative) samples were also normalized to 0.2% ethanol. This level of ethanol was not seen to contribute any perceived sweetness. The 2AFC test used for compound evaluation was a double blinded and randomized test where taste panelists (n≥15) evaluate a pair of sweetener solutions at a time—one sample contains aqueous sweetener solution plus compound (i.e. test) while the other contains aqueous sweetener solution at higher concentration without compound (i.e. positive control). Each test sample was compared against a positive control. For example, if the test sample contained 1× sweetener concentration with compound (e.g. 5brix HFCS with compound), the positive control sample contained a 1.1× sweetener concentration (e.g. 5.5brix HFCS without compound). In this manner, compounds were not assessed simply for an increase in perceived sweetness, but a significant increase in perceived sweetness above the positive control. […] Data were analyzed using binomial probabilities. Approximate levels of sweetness enhancement in column 5 of Table 1 were calculated as follows: Approximate levels of sweetness enhancement=Sweetener concentration of positive control surpassed by the test sample, divided by sweetener concentration for compound-containing sample (e.g. 1.5×=7.5brix HIFCS/5brix HIFCS).

In the case of `COc1cc(C2CC(=O)Oc3cc(C)cc(O)c32)ccc1O` (racemic) [Compound 1, 5-hydroxy-4-(4-hydroxy-3-methoxyphenyl)-7-methylchroman-2-one], the “Fold increase in perceived sweetness” value (25 ppm compound, 10 brix HFCS / 7.14 brix HFCS) was more than 1.4×. Moreover, the “Compund concentration with positive 2AFC results” value (test sample 7.14 brix HFCS vs positive control 10 brix HFCS, panelists n≥15) amounted to 25 ppm. Besides, where the note is “test sample 7.14 brix HFCS with 25 ppm compound”, the “Sweetener Concentration of positive control surpassed by test sample” value is 10 brix HFCS.
